These results are taken from US20080220080A1, “Multiparticulate Pharmaceutical form Comprising Pellets with a Substance Having a Modular Effect in Relation to Active Ingredient Release” (RÖHM GMBH, priority 2005, published 2008).

A short description of data set [1]: active ingredient delivery in PhEur phosphate buffer of pH 6.8 in a USP dissolution tester (theophylline pellets). The conditions noted are these: substance in pellet core under EUDRAGIT RS coating. It counts as physicochemical.
A short description of data set [2]: in vitro activity of modulating substances in purified water and phosphate buffer pH 6.8. The format is physicochemical. The conditions noted are these: purified water vs phosphate buffer pH 6.8. From the text: In the human and animal gastrointestinal tract the concentration of ions may vary to a certain extent and thus may influence the activity of the modulating substances. For reproducible in-vivo results substances having a modulating effect, which are not or only a little influenced by varying ionic strength are preferred.

Entries after “also recorded” stand apart in the source; their conditions may differ.

Regarding `O=C([O-])CC(O)(CC(=O)[O-])C(=O)[O-].[Na+].[Na+].[Na+]` [Na citrate], the “effect of the modulating substance on the rate of active ingredient delivery” value (“effect of the modulating substance” for short) in data set [1] is “decrease the rate of active ingredient delivery”.
On to `O=C(O)CC(O)(CC(=O)O)C(=O)O` [citric acid], for which, in data set [2], the “in vitro activity of the modulating substance in purified water compared with phosphate buffer pH 6.8 (Pharm. Eur.)” value is “almost the same activity”. In data set [1], the “effect of the modulating substance” value is “accelerating effect; also recorded: increase the rate of active ingredient delivery”.
Turning to `CC(=O)[O-].[Na+]` [sodium acetate], the results for the “effect of the modulating substance” value in data set [1] and in data set [1] (listed as Na acetate) were “accelerating effect” and “increase the rate of active ingredient delivery”, respectively.
Consider `[Cl-].[Na+]` [sodium chloride], for which the “in vitro activity of the modulating substance in purified water compared with phosphate buffer pH 6.8 (Pharm. Eur.)” value in data set [2] is reported as “almost the same activity”. Besides, the “effect of the modulating substance” value is reported as “reducing effect” in data set [1] and “decrease the rate of active ingredient delivery” in data set [1] (listed as NaCl).
With `O=C([O-])CCC(=O)[O-].[Na+].[Na+]` [sodium succinate], the “in vitro activity of the modulating substance in purified water compared with phosphate buffer pH 6.8 (Pharm. Eur.)” value in data set [2] was “almost the same activity”. Besides, the “effect of the modulating substance” value was “accelerating effect” in data set [1] and “increase the rate of active ingredient delivery” in data set [1] (listed as Na succinate).
